How the values were obtained:
[1] = In-vivo study of bioavailability in dogs of capsules filled with salts
Procedure: Four male dogs were used per tested formulation. The animals were randomized over the test groups by a computer-generated random algorithm according to body weight, with all animals within ±20% of the sex mean. A health inspection was performed prior to commencement of treatment to ensure that the animals were in a good state of health. The dogs were subjected to an acclimatization period of at least 5 days before the start of treatment under laboratory conditions. A controlled environment was maintained in the room. The animals were dosed once orally with the formulations of example 1, and blood was collected from all animals under light ether anaesthesia at regular intervals for a period of 12, 24 or 48 hours after dosing.
The mean pharmacokinetic parameters relating to the mean plasma concentration with time of each test formulation are shown in Table 3. The standard deviation, where calculated, is shown between brackets.

[2] = Stability of salts of compound (A) (decomposition to compound (A) and free acid); type: physicochemical; details: partial or complete decomposition to compound (A) and the free acid
Excerpt: Contrary to a number of other salts of compound (A) that are unstable, the compound of formula (I) is a stable salt.

[3] = male dogs, dosed once orally, capsules, dose normalized to 1 mg/kg, mean

Br.Cc1cc(C#N)cc(C)c1Oc1nc(Nc2ccc(C#N)cc2)nc(N)c1Br [HBr salt, 4-[[4-amino-5-bromo-6-(4-cyano-2,6-dimethylphenyloxy)-2-pyrimidinyl]amino]benzonitrile hydrobromide]
Tmax ([1]; dog, plasma, po, 118.6 mg salt per capsule, male dogs, dosed once orally, capsules of example 1, mean): 4.5 h | Cmax ([1]; dog, plasma, po, 118.6 mg salt per capsule, male dogs, dosed once orally, capsules, without dose normalization, mean): 366 ng/mL | AUC(0-t) ([1]; dog, plasma, po, 118.6 mg salt per capsule, male dogs, dosed once orally, capsules, without dose normalization, mean, read-out: AUC0-last (without dose normalization)): 5860 ng·h/mL | bioavailability in dogs compared with other salts (Cmax, AUC0-last) ([1]; dogs, oral capsules): improved bioavailability | tlast ([1]; male dogs, dosed once orally, capsules of example 1, mean): 48 h | AUC0-last (dose normalized to 1 mg/kg) [1, 3]: 516.1 ng·h/mL | Cmax (dose normalized to 1 mg/kg) [1, 3]: 31.73 ng/mL | stability of the salt [2]: stable

— US11253479B2, “Hydrobromide salt of an anti-HIV compound” (Janssen Sciences Ireland UC, priority 2006, dated 2022)
